Test results from ChEMBL document CHEMBL1909046, “DrugMatrix in vitro pharmacology data”.

Experiments:
[1] = DRUGMATRIX: Platelet-Derived Growth Factor (PDGF) radioligand binding (ligand: [125I] PDGF); assay type: cell-based; conditions: nih3t3; Not Active = under 50% inhibition at 10 µM
Thromboxane-A synthase = target: T1, Thromboxane-A synthase (Homo sapiens, UniProt P24557); test: biochemical; assay type: tissue-based, Platelet; conditions: platelet;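 further: enzyme inhibition assay with PGH2 supplied as substrate; in other assays of this panel Not Active means under 50% inhibition at 10 µM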
T1 sequence (P24557 whole entry): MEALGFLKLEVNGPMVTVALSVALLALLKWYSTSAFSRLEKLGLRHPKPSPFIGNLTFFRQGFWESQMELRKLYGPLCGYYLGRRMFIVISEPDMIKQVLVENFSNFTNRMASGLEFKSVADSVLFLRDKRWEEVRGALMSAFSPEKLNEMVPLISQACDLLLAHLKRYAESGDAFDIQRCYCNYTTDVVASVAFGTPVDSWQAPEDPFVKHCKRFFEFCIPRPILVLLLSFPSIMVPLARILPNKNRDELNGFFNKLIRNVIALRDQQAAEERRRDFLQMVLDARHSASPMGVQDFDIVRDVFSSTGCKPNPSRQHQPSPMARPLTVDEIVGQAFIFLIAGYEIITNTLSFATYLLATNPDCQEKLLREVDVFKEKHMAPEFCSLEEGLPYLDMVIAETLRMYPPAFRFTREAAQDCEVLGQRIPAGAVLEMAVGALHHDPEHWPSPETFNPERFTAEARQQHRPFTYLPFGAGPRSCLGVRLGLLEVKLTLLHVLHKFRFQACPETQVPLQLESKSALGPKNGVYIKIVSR

[2] = DRUGMATRIX: Purinergic P2X radioligand binding (ligand: [3H] alpha, beta-Methylene-ATP); assay type: cell membranes, Oryctolagus cuniculus, New Zealand albino, Urinary bladder, Membrane; conditions: Not Active = under 50% inhibition at 10 µM
[3] = target: Mitogen-activated protein kinase 3 (Homo sapiens, UniProt P27361); test: DRUGMATRIX: Protein Serine/Threonine Kinase, ERK1 enzyme inhibition (substrate: Myelin Basic Protein); design: species or system Escherichia coli; conditions: Not Active = under 50% inhibition at 10 µM
[4] = target: T2, Neuropeptide Y receptor type 2 (Homo sapiens, UniProt P49146); assay type: cell membranes, Membrane; conditions: kan-ts; further: in other assays of this panel Not Active means under 50% inhibition at 10 µM
T2 sequence (P49146 whole entry): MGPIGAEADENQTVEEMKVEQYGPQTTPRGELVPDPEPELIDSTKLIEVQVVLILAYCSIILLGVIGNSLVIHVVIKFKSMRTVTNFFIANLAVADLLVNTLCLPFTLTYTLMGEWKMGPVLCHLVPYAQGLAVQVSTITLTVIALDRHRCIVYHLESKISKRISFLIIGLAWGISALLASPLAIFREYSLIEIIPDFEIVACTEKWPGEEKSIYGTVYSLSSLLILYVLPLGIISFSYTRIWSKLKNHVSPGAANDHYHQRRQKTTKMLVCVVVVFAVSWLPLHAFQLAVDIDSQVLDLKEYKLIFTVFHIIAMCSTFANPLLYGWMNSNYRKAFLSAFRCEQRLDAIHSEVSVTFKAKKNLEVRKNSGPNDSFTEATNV

Carbonic anhydrase 2 = Carbonic anhydrase 2 (Homo sapiens, UniProt P00918); test: DRUGMATRIX: Carbonic Anhydrase II enzyme inhibition (substrate: 4-Nitrophenyl acetate (4-NPA)); assay type: tissue-based, Erythrocyte; conditions: erythrocyte; Not Active = under 50% inhibition at 10 µM
[5] = DRUGMATRIX: Calcium Channel Type L, Dihydropyridine radioligand binding (ligand: [3H] Nitrendipine); assay type: cell membranes, Rattus norvegicus, Wistar, Cerebral cortex, Membrane; conditions: Not Active = under 50% inhibition at 10 µM

Sequence of Mitogen-activated protein kinase 3 (P27361 whole entry): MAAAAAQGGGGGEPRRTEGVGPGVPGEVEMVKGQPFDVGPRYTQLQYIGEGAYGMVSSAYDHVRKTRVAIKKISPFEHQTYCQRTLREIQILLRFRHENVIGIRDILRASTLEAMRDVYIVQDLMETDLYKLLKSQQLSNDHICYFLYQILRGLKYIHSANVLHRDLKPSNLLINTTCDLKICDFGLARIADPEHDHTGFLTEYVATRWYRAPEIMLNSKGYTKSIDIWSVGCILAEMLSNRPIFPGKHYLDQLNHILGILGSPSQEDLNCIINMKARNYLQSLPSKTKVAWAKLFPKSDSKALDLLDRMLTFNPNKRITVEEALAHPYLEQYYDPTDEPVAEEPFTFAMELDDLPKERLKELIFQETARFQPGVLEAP

Cc1ccc(S(=O)(=O)NC(=O)NN2CCCCCC2)cc1 [TOLAZAMIDE]
Not Active: IC50 [1] | Ki [1] | IC50 (Thromboxane-A synthase) | IC50 [2] | Ki [2] | IC50 [3] | IC50 [4] | IC50 (Carbonic anhydrase 2) | IC50 [5] | Ki [5]

CC[C@@]1(O)C(=O)OCc2c1cc1n(c2=O)Cc2cc3c(CN(C)C)c(O)ccc3nc2-1 [TOPOTECAN]
Not Active: IC50 [1] | Ki [1] | IC50 (Thromboxane-A synthase) | IC50 [2] | Ki [2] | IC50 [3] | IC50 [4] | IC50 (Carbonic anhydrase 2) | IC50 [5] | Ki [5]

CC1=C(/C=C/C(C)=C/C=C/C(C)=C/C(=O)O)C(C)(C)CCC1 [TRETINOIN]
Not Active: IC50 [1] | Ki [1] | IC50 (Thromboxane-A synthase) | IC50 [2] | Ki [2] | IC50 [3] | IC50 [4] | IC50 (Carbonic anhydrase 2) | IC50 [5] | Ki [5]

CC(Cl)(Cl)Cl [TRICHLOROETHANE]
Not Active: IC50 [1] | Ki [1] | IC50 (Thromboxane-A synthase) | IC50 [2] | Ki [2] | IC50 [3] | IC50 [4] | IC50 (Carbonic anhydrase 2) | IC50 [5] | Ki [5]

CN1C(=O)OC(C)(C)C1=O [TRIMETHADIONE]
Not Active: IC50 [1] | Ki [1] | IC50 (Thromboxane-A synthase) | IC50 [2] | Ki [2] | IC50 [3] | IC50 [4] | IC50 (Carbonic anhydrase 2) | IC50 [5] | Ki [5]

LEAD(IV) ACETATE
Not Active: IC50 [1] | Ki [1] | IC50 (Thromboxane-A synthase) | Ki (Thromboxane-A synthase) | IC50 [2] | Ki [2] | IC50 [3] | Ki [3] | IC50 [4] | Ki [4] | IC50 (Carbonic anhydrase 2) | Ki (Carbonic anhydrase 2) | IC50 [5] | Ki [5]
